From patent US20050222218A1, “Screening method and compounds for treating friedreich ataxia” (priority 2002, published 2005)
“Also recorded” adds a separate entry of the source. Like-named read-outs stand apart in the source and are kept apart here.

How the values were obtained:
Type in all cases: cell-based, human
[1] = tested on: FRDA fibroblasts; assay: BSO sensitivity of FRDA fibroblasts (cell viability)
Method: (§1) Friedreich Ataxia primary culture fibroblast cell lines F1 and control fibroblast line C1 were provided by the Insel-Spital Bern (Switzerland), FRDA line F3 was provided by Hopital Necker, Paris (France), FRDA lines F2 and control lines C2 and C3 were obtained from Coriell Cell Repositories (Camden, N.J.; catalog numbers GM04078, GM08402 and GM08399 respectively). Cells were grown in a humidified atmosphere supplemented with 5% CO2. […]
(§2) The cells were seeded in 96-well plates at a density of 4000 cells/well. […] Cell viability was measured when the first signs of toxicity appeared in the controls (typically after 12 to 48 h). […] The plates were washed twice with PBS and fluorescence intensity was measured with a Gemini Spectramax XS spectrofluorimeter (Molecular Devices, Sunnyvale, Calif.) using excitation and emission wavelengths of 485 nm and 525 nm respectively. Live cells imaging was performed with a Zeiss Axiovert 135M fluorescence microscope equipped with a cooled CCD camera (Sensicam, PCO Computer Optics, Kelheim, FRG). […]

[2] = tested on: control fibroblasts; assay: BSO sensitivity of control fibroblasts (cell viability)
Method: as §1, §2

[3] = tested on: GPX enzymatic activity in control cells; assay: Glutathione peroxidase activity in control cell extracts
Method: (§3) Control and FRDA cells (5×10^5 cells grown in 10 cm dishes) were preincubated with sodium selenite (500 nM) for 24 hours and then subjected to 1 mM BSO treatment for 24 hours. Total cell extracts were used to measure glutathione content, glutathione peroxidase activity and glutathione-S-transferase activity.
(§4) To determine the glutathione peroxidase activity, cell extracts obtained for total GSH measurements were adjusted with PBS to a final protein concentration of 1.85 mg/ml. Enzymatic activity was measured with the Glutathione peroxidase cellular activity assay kit (Sigma, St Louis, Mo.) essentially according to the instructions of the manufacturer: Enzymatic activity was measured with 40 μg total protein extract in a final reaction volume of 100 μl. NADPH consumption was measured by the decrease in NADPH fluorescence at 445 nm. All measurements were done in triplicate in 96-well plates with a Gemini spectrofluorimeter using excitation and emission wavelengths of 340 nm and 445 nm respectively. Glutathione-S-transferase activity was determined in the same way as the glutathione content, except that the assay was performed in the presence of an excess of glutathione (1 mM) instead of an excess of exogenous glutathione-S-transferase. Because the BSO treatment is known to deplete cellular (GSH) levels, intracellular GSH concentrations were measured first. Any difference in basal glutathione levels between the two cell lines that were tested were not observed (FIG. 4, panel A). […] (FIG. 4, panel A). From this, it was concluded that the GSH levels per se are not responsible for the observed difference in phenotype between the two cell types. […] Therefore, GPX enzymatic activity in extracts from both cell types was compared. This measurement is based on the recycling of oxidized glutathione generated by GPX, using tert-butyl hydroperoxide as substrate. Oxidized glutathione is reduced by an excess exogenous glutathione reductase that will consume a corresponding amount of NADPH that is then measured by fluorescence. […]

[4] = tested on: intracellular GSH in control and FRDA cells; assay: Intracellular glutathione content (monochlorobimane method)
Method: as §3
To determine the glutathione content, cells were trypsinized, washed twice with PBS and snap frozen in 100 μl PBS. Cells were lysed in PBS supplemented with a protease inhibitor cocktail (Complete, Roche Diagnostics, Rotkreuz, Switzerland) by 4 freeze/thaw cycles. Total protein content was measured with the BioRad protein assay (BioRad, Hercules, Calif.) using calibrated bovine serum albumin solutions as standards (Pierce). Reduced glutathione content was measured essentially as described (Kamencic, H., et al., Monochlorobimane fluorometric method to measure tissue glutathione, Anal Biochem, 286, 35-7., (2000)) with a final monochlorobimane (mClB) (Molecular Probes, Eugene, Oreg.) concentration of 25 μM. The GSH-mClB adduct fluorescence was measured with a Gemini spectrofluorimeter using excitation and emission wavelengths of 380 nm and 470 nm respectively. Known amounts of reduced glutathione were used as standards.

[5] = tested on: GPX enzymatic activity in FRDA cells; assay: Glutathione peroxidase activity in FRDA cell extracts
Method: as §3, §4

[6] = tested on: GST activity in control cells; assay: Glutathione-S-transferase activity in control cell extracts; conditions: 500 nM sodium selenite or 1 mM BSO
Method: as §3
(§5) To determine the glutathione peroxidase activity, cell extracts obtained for total GSH measurements were adjusted with PBS to a final protein concentration of 1.85 mg/ml. Enzymatic activity was measured with the Glutathione peroxidase cellular activity assay kit (Sigma, St Louis, Mo.) essentially according to the instructions of the manufacturer: Enzymatic activity was measured with 40 μg total protein extract in a final reaction volume of 100 μl. NADPH consumption was measured by the decrease in NADPH fluorescence at 445 nm. […] Glutathione-S-transferase activity was determined in the same way as the glutathione content, except that the assay was performed in the presence of an excess of glutathione (1 mM) instead of an excess of exogenous glutathione-S-transferase. Because the BSO treatment is known to deplete cellular (GSH) levels, intracellular GSH concentrations were measured first. […] Oxidized glutathione is reduced by an excess exogenous glutathione reductase that will consume a corresponding amount of NADPH that is then measured by fluorescence. […]

[7] = tested on: FRDA fibroblasts; assay: Rescue of FRDA fibroblasts from BSO-induced cell death (CalceinAM/ethidium homodimer cell viability)
Method: Friedreich Ataxia primary culture fibroblast cell lines F1 and control fibroblast line C1 were provided by the Insel-Spital Bern (Switzerland), FRDA line F3 was provided by Hopital Necker, Paris (France), FRDA lines F2 and control lines C2 and C3 were obtained from Coriell Cell Repositories (Camden, N.J.; catalog numbers GM04078, GM08402 and GM08399 respectively). Cells were grown in a humidified atmosphere supplemented with 5% CO2. For experiments, the cells were trypsinized and resuspended at a density of 40000 cells/ml in growth medium consisting of 25% (v/v) M199 EBS and 64% (v/v) MEM EBS without phenol red (Bioconcept, Allschwil, Switzerland) supplemented with 10% (v/v) fetal calf serum (PAA Laboratories, Linz, Austria), 100 U/ml penicillin, 100 μg/ml streptomycin (PAA Laboratories, Linz, Austria), 10 μg/ml insulin (Sigma, Buchs, Switzerland), 10 ng/ml EGF (Sigma, Buchs, Switzerland) and 10 ng/ml bFGF (PreproTech, Rocky Hill, N.J.) and 2 mM glutamine (Sigma, Buchs, Switzerland).
The cells were seeded in 96-well plates at a density of 4000 cells/well. They were incubated in the presence of various concentrations of L-buthionine-(S,R)-sulfoximine (BSO), an inhibitor of γ-glutamyl cysteine synthase (EC: 6.3.2.2), the rate limiting enzyme in the biosynthesis of glutathione. Cell viability was measured when the first signs of toxicity appeared in the controls (typically after 12 to 48 h). The cells were stained for 60 min at room temperature in PBS with 1.2 μM CalceinAM and 4 μM Ethidium homodimer (Live/Dead assay, Molecular Probes, Eugene, Oreg.). The plates were washed twice with PBS and fluorescence intensity was measured with a Gemini Spectramax XS spectrofluorimeter (Molecular Devices, Sunnyvale, Calif.) using excitation and emission wavelengths of 485 nm and 525 nm respectively. Live cells imaging was performed with a Zeiss Axiovert 135M fluorescence microscope equipped with a cooled CCD camera (Sensicam, PCO Computer Optics, Kelheim, FRG). Image acquisition was performed with the ImagePro Plus software (Media Cybermetics, Silver Spring, Md.).
[…] Cell viability was measured as described in Example 2.
Cell viability was measured after a further 48 hours incubation as described in Example 2. EC50 values were deduced from the dose-response curves. The natural CoQ10 was not active in this assay (Table 1). However, a possible bioavailability problem with this molecule due to its 50 carbon atom side chain can not be ruled out. CoQ1 had EC50 values similar to Idebenone (0.2 μM). CoQ2 performed better than Idebenone, with an EC50 value of 30 nM. […] Decylubiquinone was almost as effective as CoQ2, with an EC50 of 40 nM.
FRDA cells were incubated with increasing concentrations of sodium selenite (prepared as a stock solution 5 mM in PBS) for 24 hours, then subjected to BSO stress. Cell viability was measured as described in Example 2.
Based on the previous results, the hypothesis whether small-molecules GPX mimetics could rescue the cell death phenotype of FRDA cells when exposed to BSO was tested. FRDA cells were incubated for 24 hours in the presence of Ebselen, a GPX mimetic (Muller, A., et al., “A novel biologically active seleno-organic compound—I. Glutathione peroxidase-like activity in vitro and antioxidant capacity of PZ 51 (Ebselen)”, Biochem Pharmacol, 33, 3235-9., (1984)) and then subjected to 1 mM BSO treatment.
FRDA cells were incubated in the presence of a number of GPX mimetics. Two classes of molecules (FIG. 7) were evaluated: monoselenides (compound number 4, 5 and 8) and diselenides (compound number 1-3, 6, 7, 9-16). Dose-response curves were obtained for each molecule. From the dose-response curves not only the EC50, but also the concentration range for which a molecule produced at least 50% cell survival upon BSO challenge was calculated (FIG. 8).
GPX mimetics were tested as described in Example 3. Dose-response curves were obtained for all compounds tested. […]

[8] = tested on: GST activity in FRDA cells; assay: Glutathione-S-transferase activity in FRDA cell extracts; conditions: 500 nM sodium selenite
Method: as §3, §5

[9] = tested on: FRDA fibroblasts; assay: Rescue of FRDA fibroblasts from BSO-induced cell death (CalceinAM/ethidium homodimer cell viability); conditions: no preincubation
[10] = Homo sapiens, Fibroblast, Table 1, 24 h preincubation, 1 mM BSO, viability after further 48 h, read-out: EC50
[11] = 500 nM sodium selenite, then 1 mM BSO
[12] = FRDA cells preincubated 24 h with compound, then 1 mM BSO, read-out: EC50 value, prevention of cell death

CCCCS(=N)(=O)CCC(N)C(=O)O [BSO, L-buthionine-(S,R)-sulfoximine]
viability compared to untreated controls ([1]; 1 mM BSO, FRDA cell lines F1-F3): less than 10%
BSO concentration giving marked reduction in cell titer ([1]; overnight exposure): 4 µM
viability compared to untreated controls (average) ([2]; 1 mM BSO, control cell lines C1-C3): 60%
BSO concentration giving slight decrease in cell density ([2]; overnight exposure): 100 µM
effect of BSO on GPX enzyme activity ([3]; 1 mM BSO 24 h, no selenium): small decrease in enzyme activity
effect of BSO on glutathione levels ([4]; 1 mM BSO 24 h, both cell types): reduction in glutathione levels
effect of BSO on GPX enzyme activity ([5]; 1 mM BSO 24 h, no selenium): small decrease in enzyme activity
effect on GST activity [6]: neither modulated

COC1=C(OC)C(=O)C(C)=CC1=O [CoQ0]
activity in rescuing FRDA cells from BSO (in words) ([7]; 24 h preincubation, 1 mM BSO): inactive; also recorded: not active

COC1=C(OC)C(=O)C(C/C=C(\C)CCC=C(C)C)=C(C)C1=O [CoQ2]
EC50 ([7]; FRDA cells preincubated 24 h with compound, then 1 mM BSO, viability after further 48 h, read-out: EC50 value, rescue of FRDA cell death): 30 nM

COC1=C(OC)C(=O)C(C/C=C(\C)CC/C=C(\C)CC/C=C(\C)CC/C=C(\C)CC/C=C(\C)CC/C=C(\C)CC/C=C(\C)CC/C=C(\C)CC/C=C(\C)CCC=C(C)C)=C(C)C1=O [CoQ10]
activity in rescuing FRDA cells from BSO (in words) ([7]; 24 h preincubation, 1 mM BSO): not active; also recorded: did not reach the 50% cell viability rescue
EC50 ([7]; Table 1, 24 h preincubation, 1 mM BSO, viability after further 48 h, read-out: EC50): > 50000 nM

CCCCCCCCCCC1=C(C)C(=O)C(OC)=C(OC)C1=O [Decylubiquinone, 2,3-Dimethoxy-5-methyl-6-decyl-1,4-benzoquinone]
working range (concentrations giving at least 50% cell viability) ([7]; 1 mM BSO): up to 3 orders of magnitude
EC50 ([7]; Homo sapiens, Fibroblast, FRDA cells preincubated 24 h with compound, then 1 mM BSO, viability after further 48 h, read-out: EC50 value, rescue of FRDA cell death): 40 nM
EC50 [7, 10]: 40 nM

COC1=C(OC)C(=O)C(CCCCCCCCCCO)=C(C)C1=O [Idebenone, 2,3-dimethoxy-5-methyl-6(10-hydroxydecyl)-1,4-benzoquinone]
rescue effect at the highest concentration tested ([7]; 50 μM compound, 1 mM BSO): slightly diminished
appearance of treated cells upon microscopic examination ([7]; 1 mM BSO + 5 μM Idebenone, CalceinAM/ethidium homodimer): undistinguishable from untreated cells
concentration at which full rescue was observed ([7]; 24 h preincubation, 1 mM BSO): 2 µM
EC50 ([7]; Homo sapiens, Fibroblast, FRDA cells preincubated 24 h with compound, then 1 mM BSO, read-out: EC50 value, prevention of cell death): 500 nM
EC50 [7, 10]: 500 nM

Cc1c(C)c2c(c(C)c1O)CCC(C)(C(=O)O)O2 (stereo not shown) [Trolox, 6-hydroxy-2,5,7,8-tetramethylchroman-2-carboxylic acid]
viability at 25 µM ([7]; Homo sapiens, Fibroblast, read-out: cell viability preserved): 60%
cell viability ([7]; concentrations higher than 25 μM, 1 mM BSO): 55%

O=[Se]([O-])[O-].[Na+].[Na+] [sodium selenite]
effect on GST activity [8]: slightly reduces
protection when added at the same time as BSO [9]: did not protect
concentration that protected the cells fully ([7]; 24 h preincubation, then BSO): 200 nM
effect of concentrations higher than 200 nM ([7]; 24 h preincubation, then BSO): enhanced cell growth
effect on basal GPX activity ([3]; 500 nM sodium selenite, no BSO): not enhanced
effect on GPX activity under BSO treatment [3, 11]: prevented the enzyme activity loss
effect of selenium preincubation on BSO glutathione depletion ([4]; 500 nM sodium selenite 24 h, then 1 mM BSO 24 h): did not prevent the glutathione depletion
increase in basal GPX enzyme activity ([5]; 500 nM sodium selenite, no BSO): 50%
factor of increase in GPX activity [5, 11]: 3
effect on GST activity [6]: neither modulated

CoQ1
EC50 [7, 12]: 200 nM

Vitamin E
EC50 [7, 12]: 700 nM
